This note sets out measurements from patent US6448269B1 (Eli Lilly and Company, priority 1993, dated 2002).

Where a name gives a salt, the structure may show the parent alone. Where only a bound is given, the exact number is not on record here.

The test system of the assay is human platelet-rich plasma. As to the kind of experiment: Platelet aggregation assay (Aggregation-Human PRP/ADP). The following applies: 1 min; human platelet-rich plasma incubated with compound 1 minute at 37° C.; ADP-induced aggregation; read-out: Agg: Human PRP/ADP IC50uM. The class given is cell-based. On the procedure: Platelet-rich plasma was prepared from healthy human volunteers for use in determining inhibition of platelet aggregation by the compounds.
Platelet-rich plasma was prepared at room temperature by centrifugation of the citrated whole blood at 100×g for 12 minutes. The platelet rich plasma contained approximately 200-400,000 platelets/μl.
Platelet-poor plasma was prepared by centrifugation of citrated whole blood at 12,000×g for 2 minutes.
Platelet aggregation was assayed in a 4-channel platelet aggregation profiler (PAP-4, Biodata, Hatboro, Pa.) according to the manufacturers directions. Inhibition of platelet aggregation was studied by adding varying amounts of […] to stirred human platelet-rich plasma. Specifically, the human platelet-rich plasma was incubated with the compound being tested for 1 minute at 37° C. prior to the addition of a variety of aggregating agents most often ADP 5 μM, but also 1 μg/ml collagen, 1 μM U46619 and 0.3 μM platelet activating factor.
As for `CCCOC(=O)CC1CCc2cc(NC(=O)c3ccc(C(=N)N)cc3)ccc2O1` (racemic) [Example 86, hydrochloride], the IC50 stood at 0.078 µM.
For the compound `CCCCNC(=N)c1ccc(C(=O)Nc2ccc3c(c2)CCC(CC(=O)OCC)O3)cc1` (racemic) [Example 83, Hydrochloride], the IC50 worked out at 0.14 µM.
In the case of `CCOC(=O)CCC1(C)C=Cc2cc(OCc3ccc(C(=N)N)cc3)ccc2O1` (racemic) [Example 52, Hydrochloride] it was 100 µM.
For `CCOC(=O)CC1CCc2cc(NC(=O)/C=C/C3CCNCC3)ccc2O1` (racemic) [Example 77, Ethyl rac-(3,4-Dihydro-6-(N-(3-(piperidine-4-yl)propenoyl)amino)-2H-1-benzopyran-2-yl)acetate Trifluoroacetate], the IC50 amounted to 1.3 µM.
The result for `N=C(N)c1ccc(C(=O)Nc2ccc3c(c2)CCC(CC(=O)O)C3=O)cc1` (stereo not shown) [Example 30] reads 0.06 µM; that for `NC(=O)c1ccc(C(=O)Nc2ccc3c(c2)CCC(CC(=O)O)O3)cc1` (racemic) [Example 49, rac-(6-(N-(4-Carbamoylbenzoyl)amino)-3,4-dihydro-2H-1-benzopyran-2-yl)acetic Acid], 100 µM; that for `CCOC(=O)CC1CCc2cc(NC(=O)c3ccc(C(=N)N)cc3Cl)ccc2C1=O` (racemic) [Example 62, Hydrochloride], 6.8 µM.
In the case of `CCOC(=O)CC1CCc2cc(OCc3ccc(C(=N)N)cc3)ccc2O1` (racemic) [Example 45, Hydrochloride] it was 11 µM; in that of `COC(=O)CC1CCc2cc(NC(=O)c3ccc(C(=N)N)cc3)ccc2O1` (racemic) [Example 87, Hydrochloride], 0.084 µM; in that of `CCCNC(=N)c1ccc(C(=O)Nc2ccc3c(c2)CCC(CC(=O)OCC)O3)cc1` (racemic) [Example 81, Hydrochloride], 0.39 µM.
`CCOC(=O)CCC1(C)CC(=O)c2cc(OCc3ccc(C(=N)N)cc3)ccc2O1` (racemic) [Example 66, Hydrochloride]: the IC50 was > 100 µM.
On to `CC1(CCC(=O)O)CC(=O)c2cc(OCc3ccc(C(=N)N)cc3)ccc2O1` (racemic) [Example 67, Hydrochloride], for which the IC50 was found to be 29 µM.
Turning to `N=C(N)NCc1ccc(COc2ccc3c(c2)CCN(CC(=O)O)C3=O)cc1` [Example 21, 6-[[4-(Guanidinomethyl)phenyl]methoxy]-3,4-dihydro-1-oxo-2(1H)-isoquinoline Acetic Acid Trifluoroacetate], the IC50 is > 100 µM.
In the case of `CCOC(=O)CC1CC(C)(C)c2cc(NC(=O)c3ccc(C(=N)N)cc3)ccc2O1` (racemic) [Example 79, Hydrochloride] it was > 100 µM; in that of `O=C(O)CC1CCc2cc(OCCCCC3CCNCC3)ccc2O1` (racemic) [Example 54, rac-(3,4-Dihydro-6-(4-(piperidin-4-yl)butoxy)-2H-1-benzopyran-2-yl)acetic Acid Trifluoroacetate], 12 µM.
As to `CCOC(=O)CC1CCc2cc(NC(=O)c3ccc(C(=N)N)cc3Cl)ccc2O1` (racemic) [Example 75, acetate Hydrochloride], the IC50 was found to be 1.8 µM.
The result for `CCOC(=O)CC1CCc2cc(NC(=O)c3ccc(C(=N)NCc4ccccc4)cc3)ccc2O1` (racemic) [Example 92, Ethyl rac-(3,4-Dihydro-6-(N-(4-(N′-(phenylmethylamino)iminomethyl)benzoyl)amino)-2H-1-benzopyran-2-yl)acetate Hydrochloride] reads 0.24 µM; that for `CCCOC(=O)NC(=N)c1ccc(C(=O)Nc2ccc3c(c2)CCC(CC(=O)OCC)O3)cc1` (racemic) [Example 85], > 100 µM; that for `CC1(C)CC(CC(=O)O)Oc2ccc(NC(=O)c3ccc(C(=N)N)cc3)cc21` (racemic) [Example 80, rac-(6-(N-(4-(Aminoiminomethyl)benzoyl)amino)-3,4-dihydro-4,4-dimethyl-2H-1-benzopyran-2-yl)acetic Acid], > 100 µM.
